According to patent publication US12297171B2, “EP2 antagonist compounds” (Reservoir Neuroscience, Inc., priority 2021, dated 2025):

Experiments:
[1] = target: T1, EP2 receptor (Homo sapiens, UniProt P43116); assay: EP2 potency assay (cAMP TR-FRET, LANCE Ultra cAMP kit, antagonism of prostaglandin E2 at EC80); assay type: cell-based; details: CHO-K1 cells transfected with EP2 receptor
T1 construct: expressed in transfected cells; host or cells: CHO-K1 cells (ATCC), transiently transfected with FuGENE 6
Method: Compound potency was measured using a cAMP TR-FRET assay.
CHO-K1 cells (ATCC) were seeded at a density of 9.75×10^5 in 6 cm plates, and then on the following day cell media was changed to Opti-Mem I reduced serum media (Gibco), and transfected with a plasmid for expression of the EP2 receptor (the target receptor of interest), using the FuGENE 6 Transfection reagent (Promega). After 6 hours incubation, the cell media was replaced with F12 medium supplemented with 10% FBS and 100 U/ml Pen-Strep. 24 hours after transfection, cells were harvested and seeded at a density of 3000 cells/well in a 384 well plate to perform the cAMP assay, using the LANCE Ultra cAMP assay kit (PerkinElmer).
For each test compound of interest, 10 nl/well of serially diluted test compound was added to each well, resulting in a range of 10 serially diluted compound concentrations from 10000 nM to 0.038 nM, with duplicate wells for each concentration. Plates were then centrifuged at 1000 rpm for 1 min, agitated at 600 rpm at R.T. for 2 min, and incubated at 25° C. for 5 min. The reference agonist, prostaglandin E2 (MCE), was added to each well at the appropriate concentration to reach its EC80 value. Plates were then centrifuged at 1000 rpm for 1 min, agitated at 600 rpm at R.T. for 2 min, and incubated at 25° C. for 30 min.
To measure levels of cAMP, 5 μl/well of Eu-cAMP working solution and 5 μl/well of Ulight-anti-cAMP working solution were added to each well, and plate was centrifuged at 1000 rpm for 1 min, agitated at 600 rpm at R.T. for 2 min, and incubated at 25° C. for 15 min. Levels of TR-FRET fluorescence were measured in each well using an EnVision microplate reader (excitation wavelength=337 nm and emission wavelength=615 and 665 nm). A dose-response curve was prepared by plotting percent inhibition for each compound concentration, and then IC50 was calculated by fitting a curve to the plotted values and extrapolating the IC50 concentration.
Potency data is grouped into categories of AA (IC50<100 nM); A (IC50=100 to 500 nM); B (IC50=500 nM to 1 μM); C (IC50=1 μM to 5 μM); and D (IC50>5 μM).

[2] = Human hepatocyte stability; assay type: in vitro ADME; details: human hepatocytes 0.5×10^6 cells/mL, 120 minutes; for half-life at 1 μM: read-out: T1/2 (hepatic); for microsomal CLint at 1 μM: read-out: in vitro CLint (hepatic)
Method: The tested compound was incubated in duplicate with incubation media (Williams' Medium E with 1× GlutaMAX) containing human hepatocytes (0.5×10^6 cells/mL). These incubations were carried out at a final test concentration of 1 μM over a total incubation period of 120 minutes. Samples were taken at 0, 15, 30, 60, 90 and 120 min and the reaction was terminated by addition of acetonitrile containing internal standard (100 nM alprazolam, 200 nM labetalol, 200 nM caffeine and 200 nM diclofenac). Verapamil was used as the positive control in this study. The samples were analyzed by UPLC-MS/MS to determine the concentration of the tested compound and the percentage remaining, intrinsic clearance (in vitro CLint) and half-life (t1/2) values were calculated.
(§1) Chromatographic analyses were performed on a Shimadzu UPLC apparatus (Kyoto, Japan) consisting of a gradient pump (model LC-30AD), an automatic injector (model HTC PAL System) and an on-line degasser (model DGU-20A5R). Detection was a triple quadrupole tandem mass spectrometer equipped with a turbo ion spray interface (API 4000/Triple Quad 4500/Triple Quad 5500/Triple Quad 6500). Data acquisition and integration were carried out with LC-MS software (Analyst 1.6) linked directly to the LC-MS/MS system. Chromatographic separations were achieved on a XSelect Hss T3 2.5μ (2.1×30 mm) Column. The mobile phase was 0.1% formic acid in water (A) and 0.1% formic acid in acetonitrile (B). The flow rate was 1.0 mL/min and column was maintained at 40° C.
(§2) Half-life (T1/2) data is measured in minutes, and in Table B2, in both microsomal and hepatic assays, the data is grouped into categories of: • A T1/2=1000+ • B T1/2=500 to 1000 • C T1/2=100 to 500 • D T1/2<100
(§3) In vitro clearance (CLint) data is measured in μL/min/mg prot, and in Table B2, in both microsomal and hepatic assays, the data is grouped into categories of: • A CLint<1 • B CLint=1 to 10 • C CLint=10 to 20 • D CLint=20+

[3] = Human liver microsome stability; assay type: in vitro ADME; details: human liver microsomes 0.5 mg/mL, 37° C., 60 minutes; for half-life at 2 μM: read-out: T1/2 (microsomal); for microsomal CLint at 2 μM: read-out: in vitro CLint (microsomal)
Method: The tested compound was incubated in duplicate with human liver microsomes (0.5 mg/mL) at 37° C. These incubations were carried out at a final test article concentration of 2 μM over a total incubation period of 60 minutes. Samples were taken at 0, 15, 30, 45 and 60 min and the reaction terminated by addition of 4 volumes of acetonitrile containing internal standard (100 nM alprazolam, 200 nM imipramine, 200 nM labetalol and 2 μM ketoprofen). Diclofenac was used as a positive control in this study. The samples were analyzed by UPLC-MS/MS to determine the concentration of the test compound and the percent remaining, intrinsic clearance (in vitro CLint) and half-life (t1/2) values were calculated.
as §1, §2, §3

T1 sequence (P43116 whole entry): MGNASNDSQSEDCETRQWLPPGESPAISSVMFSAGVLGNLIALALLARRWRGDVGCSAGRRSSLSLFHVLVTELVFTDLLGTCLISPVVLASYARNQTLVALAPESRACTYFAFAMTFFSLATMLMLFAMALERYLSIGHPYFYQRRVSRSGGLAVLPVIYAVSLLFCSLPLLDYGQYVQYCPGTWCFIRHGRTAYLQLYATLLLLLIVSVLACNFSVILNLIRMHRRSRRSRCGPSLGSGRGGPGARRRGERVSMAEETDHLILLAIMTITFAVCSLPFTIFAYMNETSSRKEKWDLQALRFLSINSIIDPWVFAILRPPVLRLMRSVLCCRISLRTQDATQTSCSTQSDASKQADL

Row | IC50 [1] [nM] | half-life at 1 μM [2] [h] | microsomal CLint at 1 μM [2] [µL/min/mg] | half-life at 2 μM [3] [h] | microsomal CLint at 2 μM [3] [µL/min/mg] | SMILES
1 | 100 to 500 | 8.33 to 16.7 | 1 to 10 | 1.67 to 8.33 | 1 to 10 | COc1ccc(C(=O)N2CCC(COc3ccc(-c4ccc(C#N)cc4)cc3)(C(=O)NS(=O)(=O)C(F)(F)F)C2)cc1 (centres unmarked) [Compound 4-24, 3-[({4′-cyano-[1,1′-biphenyl]-4-yl}oxy)methyl]-1-(4-methoxybenzoyl)-N-trifluoromethanesulfonylpyrrolidine-3-carboxamide]
2 | < 100 | > 16.7 | < 1 | > 16.7 | < 1 | COc1ccc(C(=O)N2CCC(COc3ccc(-c4ccc(C#N)cc4)cc3)(C(=O)NS(C)(=O)=O)C2)cc1 (centres unmarked) [Compound 4-19, 3-(((4′-cyano-[1,1′-biphenyl]-4-yl)oxy)methyl)-1-(4-methoxybenzoyl)-N-(methylsulfonyl)pyrrolidine-3-carboxamide]
3 | – | 1.67 to 8.33 | 1 to 10 | 8.33 to 16.7 | 1 to 10 | COc1ccc(C(=O)N2CCC(COc3ccc(-c4ccc(C#N)cc4)cc3)(C(=O)O)C2)cc1 (centres unmarked) [Ref, reference compound]
